Source: patent US7332495B2 (priority 2002, dated 2008)
Marks after values point to notes of the source that are not given here.

Key:
[1] = test system: rat; assay: Rat 5% formalin paw s.c.; assay type: in vivo; details: p.o., read-out: Analgesia ED50
Procedure: (§1) Two species of animals (mice and rats) and four types of pain testing models (i.p. 0.7% acetic acid, s.c. 5% formalin, hot plate 55° C., focused radiant heat) were used.

[2] = test system: Kunming mice; assay: Mice writhing model (acetic acid); assay type: in vivo; details: Mus musculus, po; Mice; Acetic acid Writhing; read-out: Analgesia ED50
Outline: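 Mixed-sex mice received test compound at 20 mg/Kg i.p.; controls received saline p.o. (20 ml/Kg). Thirty minutes later 0.7% acetic acid (10 mg/kg i.p.) was injected, and writhes were counted over 5 minutes. Inhibition ratio was calculated relative to control.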

[3] = test system: rat; assay: animal or person; details: Rattus norvegicus, po, read-out: Analgesia ED50
Procedure: Using 55° C. hot plate pain threshold detector (available from Ninghai Baishi Electronic Medical Instrument Co., Zheijiang, China) the threshold change before and after administration of a pharmaceutical composition of the present invention is tested. […] hind paw was scrubbed with alcohol cotton ball before the experiment. The regular pain threshold was tested twice for each rat, the induced hind paw licking time being recorded as the pain threshold. Measurements were made at 20-30 minute intervals. Only rats with stable pain reaction were used in the pharmaceutical test.
as §1

[4] = test system: rat; assay: Rat tail flick model (focused radiant heat); assay type: in vivo; details: po, read-out: Analgesia ED50
[5] = test system: Mice; assay: Jumping test in mice (Narcan precipitated); assay type: in vivo; details: Morphine group
Procedure: Sixty-four mice were divided into 4 groups (16 for each group, ? fifty-fifty) Morphine, IV-12-1 (75 mg/Kg) IV-12-2 (100 mg/Kg) and saline were administrated respectively 3 times per day for 7 days with progressive dose increase. On the 7th day, Narcan is injected (i.p. 2 mg/kg) to precipitate withdrawal. The number of times for the mice to jump was recorded and the incidence of the jump calculated.

[6] = test system: rats; assay: Spontaneous withdrawal tests (body weight); assay type: in vivo; details: Morphine group
[7] = test system: rats; assay: Conditional position preference in rats; details: Morphine group, i.g.
From the text: A commercially available device for testing (Med Associates Inc.) was used. Measurements were automatically recorded by a computer.
The data are indicated by means of […], t-test was employed to compare the data in different groups. The rats were divided randomly into groups by weight, 12 for each group. They were positive control groups. […] The experiments were divided into stages of accommodation, training and test. Accommodation: Open the doors between black box and grey box and the door between white box and grey box. put the rats in from the grey box; let them run free in the training box for 15 minutes for 4 days. Training: The white box is with medicine while the black one is without it. The period training is 10 days, the first day with the medicine while the second day not; the third day with the medicine while the fourth day not, so on and so forth. When carrying out the training with medicine, 15 minutes after the rat is administrated (i.g.) with medicine, it is put into the white box for 30 minutes. When the training is without medicine, 15 minutes after the rat is administrated (i.g.) with saline, it is put into the black box for 30 minutes. Test: On the 11th day, the rat is put into the training box, with the door open. The time the rat stays in each box, and the number of time it enters during 15 minutes were determined, and the percentage of the time staying in the white box to the time together in white box and black box is calculated (Table 12).

[8] = test system: rats; assay: Precipitated withdrawal test in rats; assay type: in vivo; details: Morphine group
Procedure: 48 rats were divided into 4 groups (12 for each group, ? fifty-fifty). Morphines IV-12-1 (75 mg/Kg), IV-12-2 (100 mg/Kg) and saline, was administered respectively using progressive dose increase for 14 days and 3 times per day. On the 15th day, Narcan is injected (i.p. 4 mg/kg) to precipitate withdrawal. The withdrawal syndrome was observed and the rats wre weighed at 30, 60 and 120 minutes after the injection respectively.

[9] = test system: rats; assay: Spontaneous withdrawal tests (body weight); assay type: in vivo; details: Morphine group; remark: listed apart in the source
Procedure: 96 mice were divided into 4 groups (24 for each group, ? fifty-fifty), and Morphine, IV-12-1, IV-12-2, warm boiled water were administered respectively, using progressive dose increase for 7 days (i.g.) and 2 times per day. The weight of the rats after drug withdrawal was compared with the weight one day before drug withdrawal at a corresponding time (See Table 9 and 10).

[10] = test system: Mice; assay: Mice 55° C. hot plate; assay type: in vivo; details: Mus musculus, po, read-out: Analgesia ED50
Procedure: as §1

## CC(=O)Oc1ccccc1C(=O)O [Aspirin, reference compound]
[1]
  ED50: 2310 mg/kg
[2]
  ED50: 348 mg/kg
[3]
  ED50: 843 mg/kg
[4]
  ED50: > 5000 mg/kg

## CN1CC[C@]23c4c5ccc(O)c4O[C@H]2[C@@H](O)C=C[C@H]3[C@H]1C5 [Morphine, reference compound]
[5]
  Incidence for jump (%): 87.5* %
[5]; 3 times per day for 7 days, Narcan i.p. 2 mg/kg
  Times for jump (IV ± SD): 68 ± 43
[6]
  Greatest decrease of weight after drug withdrawal: 10%
[6]; 12 h after withdrawal
  Increase (%) of weight: −0.5%
  Weight: 284.7 ± 40 g
[6]; 18 h after withdrawal
  Increase (%) of weight: −3.2%
  Weight: 276.9 ± 39 g
[6]; 24 h after withdrawal
  Increase (%) of weight: −6.4%
  Weight: 267.9 ± 37 g
[6]; 36 h after withdrawal
  Increase (%) of weight: −8.2%
  Weight: 262.7 ± 37 g
[6]; 42 h after withdrawal
  Increase (%) of weight: −9.7%
  Weight: 258.4 ± 35 g
[6]; 48 h after withdrawal
  Increase (%) of weight: −10.2%
  Weight: 257.0 ± 33 g
[6]; 60 h after withdrawal
  Increase (%) of weight: −10.3%
  Weight: 256.6 ± 31 g
[6]; 66 h after withdrawal
  Increase (%) of weight: −10.5%
  Weight: 256.0 ± 34 g
[6]; 72 h after withdrawal
  Increase (%) of weight: −9.0%
  Weight: 260.4 ± 36 g
[6]; 84 h after withdrawal
  Increase (%) of weight: −6.1%
  Weight: 268.7 ± 37 g
[6]; 90 h after withdrawal
  Increase (%) of weight: −7.5%
  Weight: 264.7 ± 37 g
[6]; 96 h after withdrawal
  Increase (%) of weight: −6.0%
  Weight: 269.0 ± 40 g
[6]; 108 h after withdrawal
  Increase (%) of weight: −3.0%
  Weight: 277.6 ± 38 g
[6]; 114 h after withdrawal
  Weight: 272.9 ± 38 g
[6]; 120 h after withdrawal
  Increase (%) of weight: −3.8%
  Weight: 275.4 ± 40 g
[6]; 132 h after withdrawal
  Increase (%) of weight: −0.5%
  Weight: 284.6 ± 38 g
[6]; 138 h after withdrawal
  Increase (%) of weight: −2.4%
  Weight: 279.3 ± 38 g
[6]; 144 h after withdrawal
  Increase (%) of weight: −1.5%
[6]; 156 h after withdrawal
  Increase (%) of weight: 1.7%
  Weight: 291.0 ± 40 g
[6]; 162 h after withdrawal
  Increase (%) of weight: −0.6%
  Weight: 284.2 ± 40 g
[6]; 168 h after withdrawal
  Increase (%) of weight: 0.1%
  Weight: 286.5 ± 42 g
[6]; before withdraw
  Weight: 286.2 ± 40 g
[6]; ♀, 18 h after withdrawal
  Weight after withdrawal compared with weight one day before withdrawal: 0.98 ± 0.03
[6]; ♀, 42 h after withdrawal
  Weight after withdrawal compared with weight one day before withdrawal: 0.92 ± 0.02
[6]; ♀, 66 h after withdrawal
  Weight after withdrawal compared with weight one day before withdrawal: 0.91 ± 0.02
[6]; ♀, 90 h after withdrawal
  Weight after withdrawal compared with weight one day before withdrawal: 0.94 ± 0.02
[6]; ♀, 138 h after withdrawal
  Weight after withdrawal compared with weight one day before withdrawal: 1.00 ± 0.03
[6]; ♀, 162 h after withdrawal
  Weight after withdrawal compared with weight one day before withdrawal: 1.01 ± 0.03
[6]; ♂, 42 h after withdrawal
  Weight after withdrawal compared with weight one day before withdrawal: 0.91 ± 0.03
[6]; ♂, 66 h after withdrawal
  Weight after withdrawal compared with weight one day before withdrawal: 0.90 ± 0.03
[6]; ♂, 90 h after withdrawal
  Weight after withdrawal compared with weight one day before withdrawal: 0.94 ± 0.03
[6]; ♂, 114 h after withdrawal
  Weight after withdrawal compared with weight one day before withdrawal: 0.97 ± 0.03
[6]; ♂, 138 h after withdrawal
  Weight after withdrawal compared with weight one day before withdrawal: 0.99 ± 0.04
[6]; ♂, 162 h after withdrawal
  Weight after withdrawal compared with weight one day before withdrawal: 1.01 ± 0.04
[2]
  ED50: 6.8 mg/kg
[7]
  Percent in the medicine box (%): 62.0 ± 8.0 %
[8]; 30 min after Narcan
  Percent of the lost weight (IV ± SD): −5.1 ± 0.7
[8]; 60 min after Narcan
  Percent of the lost weight (IV ± SD): −5.9 ± 1.0
[8]; 120 min after Narcan
  Percent of the lost weight (IV ± SD): −7.0 ± 0.7
[8]; 14 days, Narcan i.p. 4 mg/kg
  Abstinence syndrome (IV ± SD): 9.2 ± 2.8
[9]; 114 h after withdrawal
  Increase (%) of weight: −4.7%
[9]; 144 h after withdrawal
  Weight: 282.0 ± 41 g
[9]; ♀, 114 h after withdrawal
  Weight after withdrawal compared with weight one day before withdrawal: 0.97 ± 0.03
[9]; ♂, 18 h after withdrawal
  Weight after withdrawal compared with weight one day before withdrawal: 0.97 ± 0.04
[10]
  ED50: 7.7 mg/kg
[3]
  ED50: 107 mg/kg
[4]
  ED50: 23.3 mg/kg

## CC(=O)Nc1ccc(O)cc1 [Paracetamol, reference compound]
[2]
  ED50: 132 mg/kg
[3]
  ED50: 4320 mg/kg
[4]
  ED50: > 5000 mg/kg
